Experimental data reported in patent US20260042764A1, “COMPOSITIONS AND METHODS FOR INHIBITION OF KRAS” (TheRas, Inc., priority 2022, published 2026).

Tests used:
[1] = target: T1, Avi-KRAS G12V (2-169) GTP/RAF1 RBD-3xFLAG (51-131) (Homo sapiens, UniProt P01116, G12V); test: Raf1-KRAS G12V-GTP disruption HTRF assay (Biological Example 3); format: binding; settings: KRAS G12V, GTP-loaded
T1 construct: Avi-KRAS G12V (2-169)
Summary of the method: (§1)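 Compounds were titrated 10-point, 3-fold from 30 μM against preformed KRAS-GTP:RAF1 RBD (51-131) complexes at 50 nM, using KRAS 2-169 as WT, G12C, G12D or G12V. After 1 h at room temperature in Tris pH 7.5 buffer with MgCl2 and 10% DMSO, time-resolved fluorescence was read. Results are percent activity versus DMSO.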

[2] = target: T2, Avi-KRAS G12V (1-169) GppNHp/RAF1 RBD-3xFLAG (52-151) (Homo sapiens, UniProt P01116, G12V); test: Raf1-KRAS G12V-GppNHP disruption HTRF assay (Biological Example 1); format: binding
T2 construct: Avi-KRAS G12V (1-169)
T2 sequence (P01116 1-169 isoform P01116-2 G12V): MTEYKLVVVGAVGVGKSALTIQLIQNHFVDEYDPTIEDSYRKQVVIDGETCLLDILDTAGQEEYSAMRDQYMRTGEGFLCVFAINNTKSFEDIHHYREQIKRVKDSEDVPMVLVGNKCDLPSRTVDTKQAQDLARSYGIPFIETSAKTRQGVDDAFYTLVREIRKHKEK
Summary of the method: (§2)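 Compounds were tested for disruption of KRAS–RAF1 RBD binding by HTRF in 50 mM Tris pH 7.5, 100 mM NaCl, 5 mM MgCl2, 0.1% BSA, 0.01% Tween, 10% DMSO. Protein mix was incubated 1 h at room temperature with shaking, then detection reagents added for another 1 h. Activity expressed as percent of DMSO control.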

[3] = target: T3, Avi-KRAS G12D (2-169) GTP/RAF1 RBD-3xFLAG (51-131) (Homo sapiens, UniProt P01116, G12D); test: Raf1-KRAS G12D-GTP disruption HTRF assay (Biological Example 3); format: binding; settings: KRAS G12D, GTP-loaded
T3 construct: Avi-KRAS G12D (2-169)
T3 sequence (P01116 2-169 isoform P01116-2 G12D): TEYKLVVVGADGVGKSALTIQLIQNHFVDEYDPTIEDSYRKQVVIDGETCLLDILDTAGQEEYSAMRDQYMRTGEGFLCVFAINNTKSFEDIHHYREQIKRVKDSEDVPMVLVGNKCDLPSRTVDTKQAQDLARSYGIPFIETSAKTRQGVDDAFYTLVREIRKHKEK
Summary of the method: as §1

[4] = target: T4, Avi-KRAS WT (2-169) GTP/RAF1 RBD-3xFLAG (51-131) (Homo sapiens, UniProt P01116); test: Raf1-KRAS WT-GTP disruption HTRF assay (Biological Example 3); format: binding; settings: KRAS WT, GTP-loaded
T4 construct: Avi-KRAS WT (2-169)
T4 sequence (P01116 2-169 isoform P01116-2): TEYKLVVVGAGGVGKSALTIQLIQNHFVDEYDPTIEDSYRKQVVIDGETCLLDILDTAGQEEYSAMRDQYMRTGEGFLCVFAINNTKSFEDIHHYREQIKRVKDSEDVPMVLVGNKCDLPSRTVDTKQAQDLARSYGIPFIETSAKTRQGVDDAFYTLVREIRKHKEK
Summary of the method: as §1

[5] = target: T5, Avi-KRAS G12R (1-169) GppNHp/RAF1 RBD-3xFLAG (52-151) (Homo sapiens, UniProt P01116, G12R); test: Raf1-KRAS G12R-GppNHP disruption HTRF assay (Biological Example 1); format: binding
T5 construct: Avi-KRAS G12R (1-169)
T5 sequence (P01116 1-169 isoform P01116-2 G12R): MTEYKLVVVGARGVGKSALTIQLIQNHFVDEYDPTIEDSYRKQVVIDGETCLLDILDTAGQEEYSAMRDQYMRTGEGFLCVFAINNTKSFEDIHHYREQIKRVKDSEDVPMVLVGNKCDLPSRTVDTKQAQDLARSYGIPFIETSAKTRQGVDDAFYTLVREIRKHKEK
Summary of the method: as §2

GP2d cells (KRAS G12D) = test: Cell-based pERK HTRF assay in GP2d cell (Biological Example 2); settings: GP2d (KRAS G12D) cells
Summary of the method: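 GP2d (KRAS G12D) cells were plated in DMEM/10% FBS and treated the next day for 60 min with compounds. Dosing used 9-point half-log series starting at 1 μM or 100 nM in 0.25% DMSO. Lysates were read by HTRF pERK (d2/Eu cryptate antibodies) after 4–24 h at room temperature, with excitation at 320 nm and emission at 615 nm.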

[6] = KRAS G12V, GppNHp-loaded, class symbols
[7] = KRAS G12R, GppNHp-loaded, class symbols
[8] = KRAS G12V, GppNHp-loaded, Table 11
[9] = KRAS G12R, GppNHp-loaded, Table 11

T1 sequence (P01116 2-169 isoform P01116-2 G12V): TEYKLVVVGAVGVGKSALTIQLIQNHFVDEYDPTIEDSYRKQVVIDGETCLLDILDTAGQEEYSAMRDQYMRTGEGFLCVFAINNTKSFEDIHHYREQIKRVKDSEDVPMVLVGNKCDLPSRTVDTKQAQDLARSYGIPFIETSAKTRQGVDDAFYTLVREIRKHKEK

| Structure (SMILES) | IC50 [1] [nM] | IC50 [2, 6] [nM] | IC50 [3] [nM] | IC50 [4] [nM] | IC50 [5, 7] [nM] | IC50 (GP2d cells (KRAS G12D); GP2d) [nM] | IC50 (GP2d cells (KRAS G12D); GP2d, pERK HTRF, class symbols) [nM] | IC50 (GP2d cells (KRAS G12D)) [nM] | IC50 [2, 8] [nM] | IC50 [5, 9] [nM] | IC50 (GP2d cells (KRAS G12D); pERK HTRF) [nM] | IC50 ([2]; KRAS G12V-GppNHp/RAF1 RBD HTRF) [nM] | IC50 ([5]; KRAS G12R-GppNHp/RAF1 RBD HTRF) [nM] | IC50 (GP2d cells (KRAS G12D); GP2d, pERK HTRF) [nM] |
| --- | --- | --- | --- | --- | --- | --- | --- | --- | --- | --- | --- | --- | --- | --- |
| CCN(c1nc(OC[C@@]23CCCN2C[C@H](F)C3)nc2c(F)c(-c3ccc(F)c4sc(N)c(C#N)c34)c(C(F)(F)F)cc12)[C@H]1C[C@@H](C)N(C(=O)[C@H]2CCO2)C1 (atropisomer, axis not shown) [Compound 752] | 100 to 1000 | 100 to 1000 | 100 to 1000 | 100 to 1000 | < 100 | < 100 | < 100 |  |  |  |  |  |  |  |
| CCN(c1nc(OC[C@@]23CCCN2C[C@H](F)C3)nc2c(F)c(-c3ccc(F)c4sc(N)c(C#N)c34)c(C(F)(F)F)cc12)[C@H]1C[C@H](C)N(C(=O)N2CC(OC)C2)C1 (atropisomer, axis not shown) [Compound 764] | ≤ 100 | < 100 | ≤ 100 | 100 to 1000 | < 100 | < 100 | < 100 |  |  |  |  |  |  |  |
| CCN(c1nc(OC[C@@]23CCCN2C[C@H](F)C3)nc2c(F)c(-c3ccc(F)c4sc(N)c(C#N)c34)c(C(F)(F)F)cc12)[C@H]1C[C@H]2CCC(=O)N2C1 (atropisomer, axis not shown; (aR)) [Compound 573, 2-amino-4-((S)-4-(ethyl((2S,7aR)-5-oxohexahydro-1H-pyrrolizin-2-yl)amino)-8-fluoro-2-(((2R,7aS)-2-fluorotetrahydro-1H-pyrrolizin-7a(5H)-yl)methoxy)-6-(trifluoromethyl)quinazolin-7-yl)-7-fluorobenzo[b]thiophene-3-carbonitrile] | ≤ 100 | < 100 | ≤ 100 | ≤ 100 | < 100 | < 100 | < 100 |  |  |  |  |  |  |  |
| Cc1c(C(=O)N(C)C)nn2c1CN(c1nc(OC[C@@]34CCCN3C[C@H](F)C4)nc3c(F)c(-c4ccc(F)c5sc(N)c(C#N)c45)c(C(F)(F)F)cc13)CC2 (atropisomer, axis not shown; (aS)) [Compound 590, 5-((S)-7-(2-amino-3-cyano-7-fluorobenzo[b]thiophen-4-yl)-8-fluoro-2-(((2R,7aS)-2-fluorotetrahydro-1H-pyrrolizin-7a(5H)-yl)methoxy)-6-(trifluoromethyl)quinazolin-4-yl)-N,N,3-trimethyl-4,5,6,7-tetrahydropyrazolo[1,5-a]pyrazine-2-carboxamide] | 100 to 1000 | < 100 | 100 to 1000 | 100 to 1000 | < 100 |  | < 100 | < 100 |  |  |  |  |  |  |
| CCN(c1nc(OC[C@@]23CCCN2C[C@H](F)C3)nc2c(F)c(-c3ccc(F)c4sc(N)c(C#N)c34)c(C(F)(F)F)cc12)[C@H]1CC(=O)N2CCC[C@@H]12 (atropisomer, axis not shown; (aS)) [Compound 697, 2-amino-4-((S)-4-(ethyl((1S,7aS)-3-oxohexahydro-1H-pyrrolizin-1-yl)amino)-8-fluoro-2-(((2R,7aS)-2-fluorotetrahydro-1H-pyrrolizin-7a(5H)-yl)methoxy)-6-(trifluoromethyl)quinazolin-7-yl)-7-fluorobenzo[b]thiophene-3-carbonitrile] | ≤ 100 | < 100 | ≤ 100 | ≤ 100 | < 100 | < 100 | < 100 |  |  |  |  |  |  |  |
| CC(=O)N1CC[C@@H](N(C)c2nc(OC[C@@]34CCCN3C[C@H](F)C4)nc3c(F)c(-c4ccc(F)c5sc(N)c(C#N)c45)c(C(F)(F)F)cc23)[C@H]1C (single isomer, unassigned) [Compound 193] | 100 to 1000 |  | 100 to 1000 | 100 to 1000 |  | < 100 |  |  | < 100 | < 100 | < 100 |  |  |  |
| N#Cc1c(N)sc2c(F)ccc(-c3c(C(F)(F)F)cc4c(N5CCOCC5)nc(OC[C@@]56CCCN5C[C@H](F)C6)nc4c3F)c12 (single isomer, unassigned) [Compound 198] | 100 to 1000 |  | 100 to 1000 | 100 to 1000 |  | < 100 |  |  | 100 to 1000 | 100 to 1000 | < 100 |  |  |  |
| N#Cc1c(N)sc2c(F)ccc(-c3c(C(F)(F)F)cc4c(N5CC6CC(C5)O6)nc(OC[C@@]56CCCN5C[C@H](F)C6)nc4c3F)c12 (single isomer, unassigned) [Compound 275] | 100 to 1000 |  | 100 to 1000 | 100 to 1000 |  | < 100 |  |  | 100 to 1000 | 100 to 1000 | < 100 |  |  |  |
| N#Cc1c(N)sc2c(F)ccc(-c3c(C(F)(F)F)cc4c(N5C[C@H]6C[C@@H]5CO6)nc(OC[C@@]56CCCN5C[C@H](F)C6)nc4c3F)c12 (single isomer, unassigned) [Compound 287] | 100 to 1000 |  | 100 to 1000 | 100 to 1000 |  | < 100 |  |  |  |  |  | 100 to 1000 | 100 to 1000 | < 100 |
| CN(c1nc(OC[C@@]23CCCN2C[C@H](F)C3)nc2c(F)c(-c3ccc(F)c4sc(N)c(C#N)c34)c(C(F)(F)F)cc12)[C@H]1C[C@@H](O)C1 [Compound 19, 2-amino-7-fluoro-4-((S)-8-fluoro-2-(((2R,7aS)-2-fluorotetrahydro-1H-pyrrolizin-7a(5H)-yl)methoxy)-4-(((1s,3R)-3-hydroxycyclobutyl)(methyl)amino)-6-(trifluoromethyl)quinazolin-7-yl)benzo[b]thiophene-3-carbonitrile] | 100 to 1000 |  | ≤ 100 | ≤ 100 |  |  |  | < 100 | < 100 | < 100 | < 100 |  |  |  |
| N#Cc1c(N)sc2c(F)ccc(-c3c(C(F)(F)F)cc4c(N5CC6CC(C5)O6)nc(OC[C@@]56CCCN5C[C@H](F)C6)nc4c3F)c12 [Compound 145] | 1000 to 10000 |  | 100 to 1000 | 1000 to 10000 |  | < 100 |  |  | 100 to 1000 | 100 to 1000 |  |  |  | < 100 |
| N#Cc1c(N)sc2c(F)ccc(-c3c(C(F)(F)F)cc4c(N5CCCOCC5)nc(OC[C@@]56CCCN5C[C@H](F)C6)nc4c3F)c12 [Compound 232] | 100 to 1000 |  | 100 to 1000 | 100 to 1000 |  | < 100 |  |  | 100 to 1000 | 100 to 1000 |  |  |  | < 100 |
| N#Cc1c(N)sc2c(F)ccc(-c3c(C(F)(F)F)cc4c(N5CCNS(=O)(=O)CC5)nc(OC[C@@]56CCCN5C[C@H](F)C6)nc4c3F)c12 [Compound 245] | 100 to 1000 |  | 100 to 1000 | 100 to 1000 |  | < 100 |  |  | 100 to 1000 | < 100 |  |  |  | < 100 |
| N#Cc1c(N)sc2c(F)ccc(-c3c(C(F)(F)F)cc4c(N5C[C@H]6C[C@@H]5CO6)nc(OC[C@@]56CCCN5C[C@H](F)C6)nc4c3F)c12 [Compound 253, 2-amino-7-fluoro-4-[8-fluoro-2-[[(2R,8S)-2-fluoro-1,2,3,5,6,7-hexahydropyrrolizin-8-yl]methoxy]-4-[(1R,4R)-2-oxa-5-azabicyclo[2.2.1]heptan-5-yl]-6-(trifluoromethyl)quinazolin-7-yl]benzothiophene-3-carbonitrile] | 1000 to 10000 |  | 100 to 1000 | 100 to 1000 |  | < 100 |  |  | 100 to 1000 | 100 to 1000 |  |  |  | < 100 |
| CCN(c1nc(OC[C@@]23CCCN2C[C@H](F)C3)nc2c(F)c(-c3ccc(F)c4sc(N)c(C#N)c34)c(C(F)(F)F)cc12)[C@H]1CCN(C(C)=O)C1 [Compound 262] | 100 to 1000 |  | ≤ 100 | 100 to 1000 |  | < 100 |  |  | < 100 | < 100 |  |  |  | < 100 |
